# ± gives the expanded uncertainty stated by the source.
# Assay: xn = mol fraction of the nth substance listed
# Conditions: 100 kPa, Liquid; for mass density: Vibrating tube method; for viscosity: Capillary tube (Ostwald / Ubbelohde) method
smiles,measurement,setting,value
O=C1CCCO1 [γ-butyrolactone] + CN1CCCC1=O,mass density,"293.15 K, x2 = 0",1129.2 ± 1.6 kg/m3
same,mass density,"293.15 K, x2 = 0.1011",1117.01 ± 1.7 kg/m3
same,mass density,"293.15 K, x2 = 0.1484",1111.57 ± 1.6 kg/m3
same,mass density,"293.15 K, x2 = 0.2506",1100.29 ± 1.6 kg/m3
same,mass density,"293.15 K, x2 = 0.3027",1094.76 ± 1.6 kg/m3
same,mass density,"293.15 K, x2 = 0.4002",1084.79 ± 1.6 kg/m3
same,mass density,"293.15 K, x2 = 0.4953",1075.51 ± 1.6 kg/m3
same,mass density,"293.15 K, x2 = 0.5983",1065.98 ± 1.6 kg/m3
same,mass density,"293.15 K, x2 = 0.6977",1057.25 ± 1.6 kg/m3
same,mass density,"293.15 K, x2 = 0.8022",1048.51 ± 1.6 kg/m3
same,mass density,"293.15 K, x2 = 0.851",1044.56 ± 1.6 kg/m3
same,mass density,"293.15 K, x2 = 0.9418",1037.29 ± 1.6 kg/m3
same,viscosity,"298.15 K, x2 = 0",1.73 ± 0.04 mPa·s
same,viscosity,"298.15 K, x2 = 0.1002",1.719 ± 0.037 mPa·s
same,viscosity,"298.15 K, x2 = 0.2002",1.71 ± 0.036 mPa·s
same,viscosity,"298.15 K, x2 = 0.3078",1.701 ± 0.036 mPa·s
same,viscosity,"298.15 K, x2 = 0.3999",1.694 ± 0.036 mPa·s
same,viscosity,"298.15 K, x2 = 0.4998",1.689 ± 0.036 mPa·s
same,viscosity,"298.15 K, x2 = 0.6003",1.685 ± 0.036 mPa·s
same,viscosity,"298.15 K, x2 = 0.7002",1.682 ± 0.036 mPa·s
same,viscosity,"298.15 K, x2 = 0.8011",1.679 ± 0.036 mPa·s
same,viscosity,"298.15 K, x2 = 0.8998",1.678 ± 0.036 mPa·s
same,mass density,"298.15 K, x2 = 0",1124.26 ± 1.6 kg/m3
same,mass density,"298.15 K, x2 = 0.1011",1112.14 ± 1.7 kg/m3
same,mass density,"298.15 K, x2 = 0.1484",1106.72 ± 1.6 kg/m3
same,mass density,"298.15 K, x2 = 0.2506",1095.51 ± 1.6 kg/m3
same,mass density,"298.15 K, x2 = 0.3027",1090 ± 1.6 kg/m3
same,mass density,"298.15 K, x2 = 0.4002",1080.08 ± 1.6 kg/m3
same,mass density,"298.15 K, x2 = 0.4953",1070.84 ± 1.6 kg/m3
same,mass density,"298.15 K, x2 = 0.5983",1061.35 ± 1.6 kg/m3
same,mass density,"298.15 K, x2 = 0.6977",1052.68 ± 1.6 kg/m3
same,mass density,"298.15 K, x2 = 0.8022",1043.99 ± 1.6 kg/m3
same,mass density,"298.15 K, x2 = 0.851",1040.04 ± 1.6 kg/m3
same,mass density,"298.15 K, x2 = 0.9418",1032.8 ± 1.6 kg/m3
same,viscosity,"303.15 K, x2 = 0",1.63 ± 0.04 mPa·s
same,viscosity,"303.15 K, x2 = 0.1002",1.614 ± 0.034 mPa·s
same,viscosity,"303.15 K, x2 = 0.2002",1.601 ± 0.034 mPa·s
same,viscosity,"303.15 K, x2 = 0.3078",1.587 ± 0.034 mPa·s
same,viscosity,"303.15 K, x2 = 0.3999",1.577 ± 0.034 mPa·s
same,viscosity,"303.15 K, x2 = 0.4998",1.568 ± 0.033 mPa·s
same,viscosity,"303.15 K, x2 = 0.6003",1.559 ± 0.033 mPa·s
same,viscosity,"303.15 K, x2 = 0.7002",1.552 ± 0.033 mPa·s
same,viscosity,"303.15 K, x2 = 0.8011",1.546 ± 0.033 mPa·s
same,viscosity,"303.15 K, x2 = 0.8998",1.541 ± 0.033 mPa·s
same,mass density,"303.15 K, x2 = 0",1119.33 ± 1.6 kg/m3
same,mass density,"303.15 K, x2 = 0.1011",1107.27 ± 1.6 kg/m3
same,mass density,"303.15 K, x2 = 0.1484",1101.88 ± 1.6 kg/m3
same,mass density,"303.15 K, x2 = 0.2506",1090.7 ± 1.6 kg/m3
same,mass density,"303.15 K, x2 = 0.3027",1085.22 ± 1.6 kg/m3
same,mass density,"303.15 K, x2 = 0.4002",1075.32 ± 1.6 kg/m3
same,mass density,"303.15 K, x2 = 0.4953",1066.12 ± 1.6 kg/m3
same,mass density,"303.15 K, x2 = 0.5983",1056.67 ± 1.6 kg/m3
same,mass density,"303.15 K, x2 = 0.6977",1048.03 ± 1.6 kg/m3
same,mass density,"303.15 K, x2 = 0.8022",1039.38 ± 1.6 kg/m3
same,mass density,"303.15 K, x2 = 0.851",1035.46 ± 1.6 kg/m3
same,mass density,"303.15 K, x2 = 0.9418",1028.25 ± 1.6 kg/m3
same,viscosity,"308.15 K, x2 = 0",1.52 ± 0.03 mPa·s
same,viscosity,"308.15 K, x2 = 0.1002",1.504 ± 0.032 mPa·s
same,viscosity,"308.15 K, x2 = 0.2002",1.49 ± 0.032 mPa·s
same,viscosity,"308.15 K, x2 = 0.3078",1.477 ± 0.031 mPa·s
same,viscosity,"308.15 K, x2 = 0.3999",1.468 ± 0.031 mPa·s
same,viscosity,"308.15 K, x2 = 0.4998",1.458 ± 0.031 mPa·s
same,viscosity,"308.15 K, x2 = 0.6003",1.45 ± 0.031 mPa·s
same,viscosity,"308.15 K, x2 = 0.7002",1.443 ± 0.031 mPa·s
same,viscosity,"308.15 K, x2 = 0.8011",1.437 ± 0.031 mPa·s
same,viscosity,"308.15 K, x2 = 0.8998",1.433 ± 0.031 mPa·s
same,mass density,"308.15 K, x2 = 0",1114.31 ± 1.6 kg/m3
same,mass density,"308.15 K, x2 = 0.1011",1102.38 ± 1.6 kg/m3
same,mass density,"308.15 K, x2 = 0.1484",1097.05 ± 1.6 kg/m3
same,mass density,"308.15 K, x2 = 0.2506",1085.98 ± 1.6 kg/m3
same,mass density,"308.15 K, x2 = 0.3027",1080.55 ± 1.6 kg/m3
same,mass density,"308.15 K, x2 = 0.4002",1070.75 ± 1.6 kg/m3
same,mass density,"308.15 K, x2 = 0.4953",1061.64 ± 1.6 kg/m3
same,mass density,"308.15 K, x2 = 0.5983",1052.28 ± 1.6 kg/m3
same,mass density,"308.15 K, x2 = 0.6977",1043.71 ± 1.6 kg/m3
same,mass density,"308.15 K, x2 = 0.8022",1035.14 ± 1.6 kg/m3
same,mass density,"308.15 K, x2 = 0.851",1031.26 ± 1.6 kg/m3
same,mass density,"308.15 K, x2 = 0.9418",1024.11 ± 1.6 kg/m3
same,viscosity,"313.15 K, x2 = 0",1.42 ± 0.03 mPa·s
same,viscosity,"313.15 K, x2 = 0.1002",1.404 ± 0.03 mPa·s
same,viscosity,"313.15 K, x2 = 0.2002",1.391 ± 0.03 mPa·s
same,viscosity,"313.15 K, x2 = 0.3078",1.379 ± 0.029 mPa·s
same,viscosity,"313.15 K, x2 = 0.3999",1.37 ± 0.029 mPa·s
same,viscosity,"313.15 K, x2 = 0.4998",1.361 ± 0.029 mPa·s
same,viscosity,"313.15 K, x2 = 0.6003",1.354 ± 0.029 mPa·s
same,viscosity,"313.15 K, x2 = 0.7002",1.348 ± 0.029 mPa·s
same,viscosity,"313.15 K, x2 = 0.8011",1.344 ± 0.029 mPa·s
same,viscosity,"313.15 K, x2 = 0.8998",1.34 ± 0.029 mPa·s
same,mass density,"313.15 K, x2 = 0",1109.23 ± 1.6 kg/m3
same,mass density,"313.15 K, x2 = 0.1011",1097.36 ± 1.6 kg/m3
same,mass density,"313.15 K, x2 = 0.1484",1092.04 ± 1.6 kg/m3
same,mass density,"313.15 K, x2 = 0.2506",1081.02 ± 1.6 kg/m3
same,mass density,"313.15 K, x2 = 0.3027",1075.61 ± 1.6 kg/m3
same,mass density,"313.15 K, x2 = 0.4002",1065.84 ± 1.6 kg/m3
same,mass density,"313.15 K, x2 = 0.4953",1056.76 ± 1.6 kg/m3
same,mass density,"313.15 K, x2 = 0.5983",1047.44 ± 1.6 kg/m3
same,mass density,"313.15 K, x2 = 0.6977",1038.91 ± 1.6 kg/m3
same,mass density,"313.15 K, x2 = 0.8022",1030.36 ± 1.6 kg/m3
same,mass density,"313.15 K, x2 = 0.851",1026.5 ± 1.6 kg/m3
same,mass density,"313.15 K, x2 = 0.9418",1019.36 ± 1.6 kg/m3
same,viscosity,"318.15 K, x2 = 0",1.35 ± 0.03 mPa·s
same,viscosity,"318.15 K, x2 = 0.1002",1.331 ± 0.028 mPa·s
same,viscosity,"318.15 K, x2 = 0.2002",1.316 ± 0.028 mPa·s
same,viscosity,"318.15 K, x2 = 0.3078",1.302 ± 0.028 mPa·s
same,viscosity,"318.15 K, x2 = 0.3999",1.291 ± 0.028 mPa·s
same,viscosity,"318.15 K, x2 = 0.4998",1.28 ± 0.027 mPa·s
same,viscosity,"318.15 K, x2 = 0.6003",1.271 ± 0.027 mPa·s
same,viscosity,"318.15 K, x2 = 0.7002",1.263 ± 0.027 mPa·s
same,viscosity,"318.15 K, x2 = 0.8011",1.256 ± 0.027 mPa·s
same,viscosity,"318.15 K, x2 = 0.8998",1.251 ± 0.027 mPa·s
same,mass density,"318.15 K, x2 = 0",1104.1 ± 1.6 kg/m3
same,mass density,"318.15 K, x2 = 0.1011",1092.31 ± 1.6 kg/m3
same,mass density,"318.15 K, x2 = 0.1484",1087.03 ± 1.6 kg/m3
same,mass density,"318.15 K, x2 = 0.2506",1076.08 ± 1.6 kg/m3
same,mass density,"318.15 K, x2 = 0.3027",1070.71 ± 1.6 kg/m3
same,mass density,"318.15 K, x2 = 0.4002",1061.01 ± 1.6 kg/m3
same,mass density,"318.15 K, x2 = 0.4953",1051.99 ± 1.6 kg/m3
same,mass density,"318.15 K, x2 = 0.5983",1042.73 ± 1.6 kg/m3
same,mass density,"318.15 K, x2 = 0.6977",1034.27 ± 1.6 kg/m3
same,mass density,"318.15 K, x2 = 0.8022",1025.76 ± 1.6 kg/m3
same,mass density,"318.15 K, x2 = 0.851",1021.91 ± 1.6 kg/m3
same,mass density,"318.15 K, x2 = 0.9418",1014.8 ± 1.6 kg/m3
same,viscosity,"323.15 K, x2 = 0",1.3 ± 0.03 mPa·s
same,viscosity,"323.15 K, x2 = 0.1002",1.278 ± 0.027 mPa·s
same,viscosity,"323.15 K, x2 = 0.2002",1.261 ± 0.027 mPa·s
same,viscosity,"323.15 K, x2 = 0.3078",1.245 ± 0.027 mPa·s
same,viscosity,"323.15 K, x2 = 0.3999",1.232 ± 0.026 mPa·s
same,viscosity,"323.15 K, x2 = 0.4998",1.219 ± 0.026 mPa·s
same,viscosity,"323.15 K, x2 = 0.6003",1.208 ± 0.026 mPa·s
same,viscosity,"323.15 K, x2 = 0.7002",1.198 ± 0.026 mPa·s
same,viscosity,"323.15 K, x2 = 0.8011",1.189 ± 0.025 mPa·s
same,viscosity,"323.15 K, x2 = 0.8998",1.182 ± 0.025 mPa·s
same,mass density,"323.15 K, x2 = 0",1098.88 ± 1.6 kg/m3
same,mass density,"323.15 K, x2 = 0.1011",1087.72 ± 1.6 kg/m3
same,mass density,"323.15 K, x2 = 0.1484",1082 ± 1.6 kg/m3
same,mass density,"323.15 K, x2 = 0.2506",1071.16 ± 1.6 kg/m3
same,mass density,"323.15 K, x2 = 0.3027",1065.83 ± 1.6 kg/m3
same,mass density,"323.15 K, x2 = 0.4002",1056.23 ± 1.6 kg/m3
same,mass density,"323.15 K, x2 = 0.4953",1047.31 ± 1.6 kg/m3
same,mass density,"323.15 K, x2 = 0.5983",1038.15 ± 1.6 kg/m3
same,mass density,"323.15 K, x2 = 0.6977",1029.76 ± 1.6 kg/m3
same,mass density,"323.15 K, x2 = 0.8022",1021.34 ± 1.6 kg/m3
same,mass density,"323.15 K, x2 = 0.851",1017.51 ± 1.6 kg/m3
same,mass density,"323.15 K, x2 = 0.9418",1010.46 ± 1.6 kg/m3

# — the NIST ThermoML archive (doi:10.1016/j.jct.2015.08.013)
